# Experimental data as given in patent EP1769804B1, “hPTH(1-34) for use in preventing or reducing the incidence or severity of vertebral and / or non vertebral fracture in a male human” (priority 1998, dated 2012).
# Marks after values point to notes of the source that are not given here.
# Assays:
# [1] = test system: Ovariectomized Primates; experiment: Cortical histomorphometry of the humerus midshaft; type: in vivo, Macaca fascicularis; conditions: mean ± SEM
# Description: Biomechanical tests were done on lumbar vertebrae L-3 to L-4, the femur neck, humerus midshaft, and on a cortical bone specimen machined from the femur diaphysis (measures defined in Table 2). Conventional static and dynamic histomorphometry were done (measures described in Table 6) on the humerus midshaft, lumbar vertebra L-2, femoral neck, femur midshaft, the radius midshaft and distal radius. Initial statistical analyses compared all groups to vehicle-treated ovariectomized controls. The data is suitable for additional exploratory analyses to examine dose dependency, effects of withdrawal, interactions between outcomes, and changes in time by methods known to those of skill in the art. All assays were conducted and determined by methods known in the art.
# (§1) For certain experimental subjects, cortical bone of the humerus was examined by histomorphometry and by polarized Fourier transform infrared microscopy. The Fourier transform infrared microscopy was conducted by an adaptation of known methods for such microscopy.
# [2] = test system: cortical bone of the humerus; experiment: Histomorphometry and polarized Fourier transform infrared microscopy of humerus cortical bone; type: in vivo, Macaca fascicularis
# Method: as §1
# [3] = test system: rodents; experiment: In vivo mechanistic studies in rodents; conditions: after the first dose
# [4] = test system: post-menopausal women; experiment: Clinical trial: number and severity of vertebral fractures (spine x-ray); type: in vivo, Humans
# [5] = cynomolgus monkey, in vivo
# Method: Serum and urinary samples were taken 24 hours after vehicle or rhPTH(1-34) injection at 3-month intervals. A sparse sampling design of 5 monkeys in each rhPTH(1-34)-treated group was used for pharmacokinetics, with sampling (spanning 0 to 240 minutes each time) at baseline, 7, 11, and 17 months.
# [6] = test system: ovariectomized cynomolgus monkeys; conditions: cynomolgus monkey, in vivo
# Method: The live phase of the study used feral, adult (closed growth plates) cynomolgus primates (Macaca fascicularis), weighing 2.77±0.03 kg (mean ± standard error of the mean [SEM]). Monkeys were held in quarantine for 3 months, then started on a diet containing 0.3% calcium, 0.3% phosphate, and 250 IU vitamin D3/100 g diet, and given fluoridated water (1 ppm fluoride) ad libitum. The calcium content corresponded to 1734 mg calcium/2000 calories. After 1 month on the diet, animals were sorted into groups of 21 or 22, sham operated or ovariectomized. Once daily subcutaneous injections of vehicle (sham and ovariectomized controls) or rhPTH(1-34), at 1 µg/kg (PTH1) or 5 µg/kg (PTH5), were started 24 hours after ovariectomy. Animals were treated for either 18 months (PTH1 and PTHS), or for 12 months followed by withdrawal of treatment (PTH1-W and PTH5-W).
# [7] = PTH5-W: withdrawal after 5 µg/kg for 12 months
# [8] = 20 µg/day PTH compared to placebo
# [9] = 40 µg/day PTH compared to placebo
# [10] = all PTH treated patients compared with placebo
substance,measurement,setting,value
teriparatide [rhPTH(1-34)],"BFR/BS.Ps (Bone formation rate, periosteal surface referent)",[1]; [7],5.79 ± 4.05 µm/day
same,"BFR/BV (Bone formation rate, bone volume referent)",[1]; [7],2.21 ± 1.73^a %/year
same,Ct.Ar (Cortical area),[1]; [7],40.83 ± 5.80^a mm^2
same,FP (Formation period),[1]; [7],88.63 ± 52.90 days
same,L.On.N/Ct.A (Number of fluorochrome labeled osteons per unit cortical area),[1]; [7],0.38 ± 0.26^a #/mm^2
same,"MAR (Mineral apposition rate, intracortical)",[1]; [7],0.85 ± 0.28^a µm/day
same,"MAR.Ec (Mineral apposition rate, endocortical surface)",[1]; [7],0.63 ± 0.17 µm/day
same,"MAR.Ps (mineral apposition rate, periosteal surface)",[1]; [7],0.82 ± 0.15 µm/day
same,MS/BS.Ec (mineralizing endocortical surface normalized to total endocortical surface),[1]; [7],8.93 ± 15.39^a %
same,MS/BS.Ps (Mineralizing periosteal surface normalized to total periosteal surface),[1]; [7],2.30 ±3.76^a %
same,Me.Ar (Medullary cavity area),[1]; [7],17.34 ± 6.05 mm^2
same,O.Wi (Osteoid width),[1]; [7],3.76 ± 0.83 µm
same,"Po (Porosity, the percentage of bone area occupied by spaces)",[1]; [7],6.40 ± 4.22^a %
same,W.Wi (Osteonal wall width),[1]; [7],63.82 ± 8.31 µm
same,omt (Osteoid maturation time),[1]; [7],5.07 ± 2.65 days
same,Ac.F (Activation frequency),[1]; PTH5: 5 µg/kg for 18 months,8.70 ± 3.97 cycles/year
same,"B.Ar (Bone area, the total area within the periosteal surface)",[1]; PTH5: 5 µg/kg for 18 months,55.81 ± 6.24 mm^2
same,"BFR/BS.Ec (bone formation rate, endocortical surface referent)",[1]; PTH5: 5 µg/kg for 18 months,34.04 ± 19.01 µm/day
same,"BFR/BS.Ps (Bone formation rate, periosteal surface referent)",[1]; PTH5: 5 µg/kg for 18 months,8.99 ± 5.81 µm/day
same,"BFR/BV (Bone formation rate, bone volume referent)",[1]; PTH5: 5 µg/kg for 18 months,12.93 ± 5.94^a %/year
same,Ct.Ar (Cortical area),[1]; PTH5: 5 µg/kg for 18 months,40.96 ± 4.30^a mm^2
same,FP (Formation period),[1]; PTH5: 5 µg/kg for 18 months,81.97 ± 95.63 days
same,L.On.N/Ct.A (Number of fluorochrome labeled osteons per unit cortical area),[1]; PTH5: 5 µg/kg for 18 months,1.45 ± 0.47^a #/mm^2
same,"MAR (Mineral apposition rate, intracortical)",[1]; PTH5: 5 µg/kg for 18 months,1.03 ± 0.23 µm/day
same,"MAR.Ec (Mineral apposition rate, endocortical surface)",[1]; PTH5: 5 µg/kg for 18 months,0.75 ± 0.14 µm/day
same,"MAR.Ps (mineral apposition rate, periosteal surface)",[1]; PTH5: 5 µg/kg for 18 months,0.66 ± 0.17 µm/day
same,MS/BS.Ec (mineralizing endocortical surface normalized to total endocortical surface),[1]; PTH5: 5 µg/kg for 18 months,40.47 ± 24.68^a %
same,MS/BS.Ps (Mineralizing periosteal surface normalized to total periosteal surface),[1]; PTH5: 5 µg/kg for 18 months,11.00 ± 9.63%
same,Me.Ar (Medullary cavity area),[1]; PTH5: 5 µg/kg for 18 months,14.85 ± 4.72^a mm^2
same,O.Wi (Osteoid width),[1]; PTH5: 5 µg/kg for 18 months,3.94 ± 1.13 µm
same,"Po (Porosity, the percentage of bone area occupied by spaces)",[1]; PTH5: 5 µg/kg for 18 months,6.78 ± 4.23^a %
same,Rs.N/Ct.A (number of resorption spaces per unit cortical area),[1]; PTH5: 5 µg/kg for 18 months,0.43 ± 0.26^a #/mm^2
same,W.Wi (Osteonal wall width),[1]; PTH5: 5 µg/kg for 18 months,65.29 ± 9.43 µm
same,omt (Osteoid maturation time),[1]; PTH5: 5 µg/kg for 18 months,6.45 ± 13.85 days
same,bone quality (crystallites),[2],improved bone quality by replacing old bone (large crystallites) with young bone
same,time to detectable increase in bone forming surfaces,[3],≤ 24 h
same,Number of patients with 2 or more new vertebral fractures,[4]; 20 µg/day PTH (n=444),5
same,Number of patients with new moderate to severe fractures,[4]; 20 µg/day PTH (n=444),4
same,Number of patients with new vertebral fractures,[4]; 20 µg/day PTH (n=444),22
same,percentage of patients with 2 or more new vertebral fractures,[4]; 20 µg/day PTH (n=444),(1.1%)
same,percentage of patients with new moderate to severe fractures,[4]; 20 µg/day PTH (n=444),(0.9%)
same,percentage of patients with new vertebral fractures,[4]; 20 µg/day PTH (n=444),(5.0%)
same,reduction in number of patients with moderate to severe vertebral fractures,[4]; [8],90%
same,reduction in number of patients with multiple vertebral fractures,[4]; [8],77%
same,reduction in number of patients with vertebral fractures,[4]; [8],65%
same,Number of patients with 2 or more new vertebral fractures,[4]; 40 µg/day PTH (n=434),3
same,Number of patients with new moderate to severe fractures,[4]; 40 µg/day PTH (n=434),9
same,Number of patients with new vertebral fractures,[4]; 40 µg/day PTH (n=434),19
same,percentage of patients with 2 or more new vertebral fractures,[4]; 40 µg/day PTH (n=434),(0.7%)
same,percentage of patients with new moderate to severe fractures,[4]; 40 µg/day PTH (n=434),(2.1%)
same,percentage of patients with new vertebral fractures,[4]; 40 µg/day PTH (n=434),(4.4%)
same,reduction in number of patients with moderate to severe vertebral fractures,[4]; [9],78%
same,reduction in number of patients with multiple vertebral fractures,[4]; [9],86%
same,reduction in number of patients with vertebral fractures,[4]; [9],69%
same,reduction in number of patients with moderate to severe vertebral fractures,[4]; [10],84%
same,reduction in number of patients with multiple vertebral fractures,[4]; [10],81%
same,reduction in number of patients with vertebral fractures,[4]; [10],67%
same,reduction in the number of patients with moderate or severe fractures,[4]; summary,78%
same,reduction of the number of patients with prior vertebral fractures who suffered new vertebral fractures,[4]; summary,more than 66%
same,"reduction of the number of patients with prior vertebral fractures who suffered new, multiple vertebral fractures",[4]; summary,more than 78%
same,pharmacokinetic measures,[5],did not change with time
same,sustained hypercalcemia or kidney pathology,[6],no evidence of sustained hypercalcemia or kidney pathology
